The values below come from patent US9073895B2 (Boehringer Ingelheim International GmbH, priority 2010, dated 2015).

The structures appear in SMILES notation. Some results are limits rather than exact numbers.

Assay [1] has as its system synthesis of LTB4 in human whole blood. The assay is described as follows: Human whole blood LTB4 production inhibition assay. Particulars: heparinized human whole blood, calcimycin 20 μM, plasma LTB4; read-out: HuWB IC50. The class given is cell-based. An outline of the steps: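 Heparinized human whole blood was preincubated with compound for 15 min at 37° C, then stimulated with calcimycin (20 μM final, in PBS pH 7.4) for a further 30 min at 37° C. Plasma LTB4 was quantified by antibody-based homogeneous time-resolved fluorescence.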

Assay [2] addresses T1, recombinant human FLAP protein (Homo sapiens, UniProt P20292).
T1 construct: made in house; host or cells: Sf9 insect cells (membrane fraction, 100,000 x g pellet)
T1 sequence (P20292 1-161): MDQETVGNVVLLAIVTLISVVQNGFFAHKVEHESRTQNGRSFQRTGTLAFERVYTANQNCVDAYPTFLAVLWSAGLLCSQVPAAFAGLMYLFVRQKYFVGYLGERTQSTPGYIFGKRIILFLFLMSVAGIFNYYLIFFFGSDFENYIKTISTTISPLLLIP
The assay is described as follows: FLAP binding assay (SPA, displacement of [125I]L-691,831). Particulars: membranes of sf9 cells expressing human FLAP, [125I]L-691,831 probe; read-out: hFLAP binding IC50. In a few lines:
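Membranes from sf9 cells expressing human FLAP (5 μg/well) were bound to WGA SPA beads (200 μg/well). Nonspecific binding was defined with 10 μM unlabelled L-691,831.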
For orientation: Loss of bound radioactivity is the signal in a displacement assay; it reports binding, not function.

With `Nc1ncc(-c2ccc(C3(C(=O)Nc4nc5ccccc5s4)CCOCC3)cc2)cn1` [Example 55, 4-[4-(2-aminopyrimidin-5-yl)phenyl]-N-(1,3-benzothiazol-2-yl)tetrahydro-2H-pyran-4-carboxamide], the IC50 (in general, the point on the concentration scale where inhibition reaches its midpoint) in assay [1] is over 3000 nM; in assay [2], 29 nM.
Taken in the same sequence, the figures for `Nc1ncc(-c2ccc(C3(C(=O)Nc4cccnn4)CCC3)cc2)cn1` [Example 225, 1-[4-(2-aminopyrimidin-5-yl)phenyl]-N-(pyridazin-3-yl)cyclobutanecarboxamide] were 1370 nM and 78 nM.
For the compound `N#Cc1ccnc(NC(=O)C2(c3ccc(-c4cnc(N)nc4)cc3)CCOCC2)c1` [Example 79, 4-[4-(2-aminopyrimidin-5-yl)phenyl]-N-(4-cyanopyridin-2-yl)tetrahydro-2H-pyran-4-carboxamide], the half-inhibitory concentration (IC50) in assay [1] was over 3000 nM; in assay [2], 53.5 nM.
On to `N#Cc1ccc(NC(=O)C2(c3ccc(-c4cnc(N)nc4)cc3)CCC2)cc1Cl` [Example 195, 1-[4-(2-aminopyrimidin-5-yl)phenyl]-N-(3-chloro-4-cyanophenyl)cyclobutane-carboxamide], for which the IC50 worked out at 174 nM in assay [1] and 2.7 nM in assay [2].
With `Nc1ncc(-c2ccc(C3(C(=O)Nc4cc5ccccc5cn4)CCOCC3)cc2)cn1` [Example 82, 4-[4-(2-aminopyrimidin-5-yl)phenyl]-N-(isoquinolin-3-yl)tetrahydro-2H-pyran-4-carboxamide], the IC50 in assay [1] was determined as 2780 nM; in assay [2], 10.5 nM.
For `COc1cncc(-c2ccc(NC(=O)C3(c4ccc(-c5cnc6c(c5)CCN6)cc4)CCOCC3)nc2)c1` [Example 175, 4-[4-(2,3-dihydro-1H-pyrolo[2,3-b]pyridin-5-yl)phenyl]-N-(5'-methoy-3,3'-bipyridin-6-yl)tetrahydro-2H-pyran-4-carboxamide], in that order: 1280 nM and 22 nM.
Turning to `COc1cc(NC(=O)C2(c3ccc(-c4cnc(N)nc4)cc3)CCC2)ncn1` [Example 199, 1-[4-(2-aminopyrimidin-5-yl)phenyl]-N-(6-methoxypyrimidin-4-yl)cyclobutanecarboxamide], the values for the IC50 in assay [1] and in assay [2] were 1380 nM and 5.7 nM, respectively.
`Nc1ncc(-c2ccc(C3(C(=O)Nc4ccc(S(=O)(=O)N5CCOCC5)cc4)CCOCC3)cc2)cn1` [Example 64, 4-[4-(2-aminopyrimidin-5-yl)phenyl]-N-[4-(morpholin-4-ylsulfonyl)phenyl]tetrahydro-2H-pyran-4-carboxamide]: the IC50 in assay [1] was found to be 850 nM; in assay [2] it was 48 nM.
Taken in the same sequence, the figures for `Nc1ncc(-c2ccc(C3(C(=O)Nc4ccc(OCc5ccccc5)cc4)CCOCC3)cc2)cn1` [Example 85, 4-[4-(2-aminopyrimidin-5-yl)phenyl]-N-[4-(benzyloxy)phenyl]tetrahydro-2H-pyran-4-carboxamide] were 849 nM and 12.5 nM.
As to `Cc1nc(-c2ccc(NC(=O)C3(c4ccc(-c5cnc(N)nc5)cn4)CCOCC3)nc2)cs1` [Example 128, 4-[5-(2-aminopyrimidin-5-yl)pyridin-2-yl]-N-[5-(2-methyl-1,3-thiazol-4-yl)pyridin-2-yl]tetrahydro-2H-pyran-4-carboxamide], the IC50 in assay [1] was 815 nM; in assay [2] it was 140 nM.
As for `Cc1nc(-c2ccc(NC(=O)C3(c4ccc(-c5cnc(N)c(C)c5)cc4)CCOCC3)nc2)cs1` [Example 152, 4-[4-(6-amino-5-methylpyridin-3-yl)phenyl]-N-[5-(2-methyl-1,3-thiazol-4-yl)pyridin-2-yl]tetrahydro-2H-pyran-4-carboxamide], the IC50 in assay [1] came to 896 nM; in assay [2], 34.5 nM.
For `Nc1ncc(-c2ccc(C3(C(=O)Nc4ccc5ncsc5c4)CCOCC3)cc2)cn1` [Example 18, 4-[4-(2-aminopyrimidin-5-yl)phenyl]-N-(1,3-benzothiazol-6-yl)tetrahydro-2H-pyran-4-carboxamide], the IC50 in assay [1] is 1700 nM; in assay [2], 16 nM.
Taken in the same sequence, the figures for `COc1ccc(-c2ccc(NC(=O)C3(c4ccc(-c5cnc6[nH]ccc6c5)cc4)CCOCC3)nc2)cn1` [Example 168, N-(6'-methoxy-3,3'-bipyridin-6-yl)-4-[4-(1H-pyrrolo[2,3-b]pyridin-5-yl)phenyl]tetrahydro-2H-pyran-4-carboxamide] were 616 nM and 7.95 nM.
Taken in the same sequence, the figures for `Cc1noc(-c2ccc(NC(=O)C3(c4ccc(-c5cnc(N)nc5)cc4)CCOCC3)nc2)n1` [Example 178, 4-[4-(2-aminopyrimidin-5-yl)phenyl]-N-[5-(3-methyl-1,2,4-oxadiazol-5-yl)pyridin-2-yl]tetrahydro-2H-pyran-4-carboxamide] were 557 nM and 35.5 nM.
For `CCOC(=O)c1ccc(NC(=O)C2(c3ccc(-c4cnc(N)nc4)cc3)CCC2)nc1` [Example 237, ethyl 6-[({1-[4-(2-aminopyrimidin-5-yl)phenyl]cyclobutyl}carbonyl)amino]pyridine-3-carboxylate], in that order: 43 nM and 1.9 nM.
In the case of `Nc1ncc(-c2ccc(C3(C(=O)Nc4cccc(-c5cnco5)c4)CCOCC3)cc2)cn1` [Example 26, 4-[4-(2-aminopyrimidin-5-yl)phenyl]-N-[3-(1,3-oxazol-5-yl)phenyl]tetrahydro-2H-pyran-4-carboxamide], the IC50 in assay [1] was over 3000 nM; in assay [2], 26 nM.
For `N#Cc1ccc(NC(=O)C2(c3ccc(-c4cnc(N)nc4)cc3)CCC2)nc1` [Example 232, 1-[4-(2-aminopyrimidin-5-yl)phenyl]-N-(5-cyanopyridin-2-yl)cyclobutanecarboxamide], in that order: 152 nM and 7.45 nM.
`Nc1ncc(-c2ccc(C3(C(=O)Nc4ccncc4)CCC3)cc2)cn1` [Example 177, 1-[4-(2-aminopyrimidin-5-yl)phenyl]-N-(pyridin-4-yl)cyclobutanecarboxamide]: the IC50 in assay [1] is 217 nM; in assay [2] it was 5.1 nM.
For `Cc1csc(NC(=O)C2(c3ccc(-c4cnc(N)nc4)cc3)CCC2)n1` [Example 205, 1-[4-(2-aminopyrimidin-5-yl)phenyl]-N-(4-methyl-1,3-thiazol-2-yl)cyclobutanecarboxamide], in that order: 922 nM and 8.4 nM.
Taken in the same sequence, the figures for `Cc1cc(NC(=O)C2(c3ccc(-c4cnc5[nH]ccc5c4)cc3)CCC2)ccn1` [Example 189, N-(2-methylpyridin-4-yl)-1-[4-(1H-pyrrolo[2,3-b]pyridin-5-yl)phenyl]cyclobutanecarboxamide] were 190 nM and 1.45 nM.
Turning to `CC(C)C(C)(C(=O)Nc1ccncc1)c1ccc(-c2ccc(N(C)C)nc2)cc1` (stereo not shown) [Example 227, 2-{4-[6-(dimethylamino)pyridin-3-yl]phenyl}-2,3-dimethyl-N-(pyridin-4-yl)butanamide], the IC50 in assay [1] was over 3000 nM; in assay [2], 40.5 nM.
As to `CC(C)C(C)(C(=O)Nc1ccncc1)c1ccc(-c2cnc(N)nc2)cc1` (stereo not shown) [Example 169, 2-[4-(2-aminopyrimidin-5-yl)phenyl]-2,3-dimethyl-N-(pyridin-4-yl)butanamide], the IC50 was 330 nM in assay [1] and 5.25 nM in assay [2].
As for `O=C(Nc1ccc(Oc2ccccc2)cn1)C1(c2ccc(-c3cnc4[nH]ccc4c3)cc2)CCOCC1` [Example 174, N-(5-phenoxypyridin-2-yl)-4-[4-(1H-pyrrolo[2,3-b]pyridin-5-yl)phenyl]tetrahydro-2H-pyran-4-carboxamide], the IC50 in assay [1] turned out to be 686 nM; in assay [2], 18.1 nM.
In the case of `COc1cncc(-c2ccc(NC(=O)C3(c4ccc(-c5cnc6[nH]ccc6c5)cc4)CCOCC3)nc2)c1` [Example 167, N-(5'-methoxy-3,3'-bipyridin-6-yl)-4-[4-(1H-pyrrolo[2,3-b]pyridin-5-yl)phenyl]tetrahydro-2H-pyran-4-carboxamide], the IC50 worked out at 354 nM in assay [1] and 4.7 nM in assay [2].
As for `Cc1ccc2nc(NC(=O)C3(c4ccc(-c5cnc(N)nc5)cc4)CCOCC3)sc2c1` [Example 8, 4-[4-(2-aminopyrimidin-5-yl)phenyl]-N-(6-methyl-1,3-benzothiazol-2-yl)tetrahydro-2H-pyran-4-carboxamide], the values for the IC50 in assay [1] and in assay [2] were 3560 nM and 25 nM, respectively.
In the case of `Cc1nc(-c2ccc(NC(=O)C3(c4ccc(-c5cnc6[nH]cnc6c5)cc4)CCOCC3)nc2)cs1` [Example 197, 4-[4-(3H-imidazo[4,5-b]pyridin-6-yl)phenyl]-N-[5-(2-methyl-1,3-thiazol-4-yl)pyridin-2-yl]tetrahydro-2H-pyran-4-carboxamide], the concentration for half-maximal inhibition (IC50) in assay [1] was found to be 2440 nM; in assay [2], 27 nM.
Taken in the same sequence, the figures for `COc1cncc(-c2ccc(NC(=O)C(C)(c3ccc(-c4cnc(N)nc4)cc3)C(C)C)nc2)c1` (stereo not shown) [Example 162, 2-[4-(2-aminopyrimidin-5-yl)phenyl]-N-(5'-methoxy-3,3'-bipyridin-6-yl)-2,3-dimethylbutanamide] were 896 nM and 4.1 nM.
Taken in the same sequence, the figures for `N#Cc1ccc(NC(=O)C2(c3ccc(-c4cnc(N)nc4)cc3)CCC2)cn1` [Example 241, 1-[4-(2-aminopyrimidin-5-yl)phenyl]-N-(6-cyanopyridin-3-yl)cyclobutanecarboxamide] were 406 nM and 5.6 nM.
Taken in the same sequence, the figures for `Cc1nc(-c2ccc(NC(=O)C3(c4ccc(-c5cnc(N)nc5)cc4)CCCCC3)nc2)cs1` [Example 123, 1-[4-(2-aminopyrimidin-5-yl)phenyl]-N-[5-(2-methyl-1,3-thiazol-4-yl)pyridin-2-yl]cyclohexanecarboxamide] were 919 nM and 4 nM.
